Test [1] concerns Foxp3+ Treg, CD8+ T cells, G-MDSC/neutrophils. In kind it is in vivo. The settings on record: CTX treated vs only VTP. The protocol: (§1) • (i) Bacteriochlorophyll Derivatives—The Bchl derivatives and RGD-conjugates thereof were provided by Steba Biotech (Rehovot, Israel). […] Concentration was verified by spectrophotometric measurement. STL-7012 was provided as dipotassium salt. Working solution was prepared by dissolving STL-7012 K^+ salt in 5% mannitol solution (1 mg/ml). […] WST11 was supplied as a powder and kept in the dark at −20° C. Stock was prepared by dissolving WST11 in DDW containing 5% glucose and 0.67% mannitol, aliquoted and lyophilized. Working solution was reconstituted with DDW and the concentration of solution was confirmed spectrophotometrically. Alternatively, Clinical WST11 (batch: P00611, and 10-130611) was supplied as lyophilized formulation. Material was dissolved in 5% dextrose, aliquoted and stored at −20° C. […] Aliquots were thawed, diluted with saline to a desired concentration and used on the same day at a dose of 75 mg/kg. Cyclophosphamide (CTX, Endoxan®, Baxter Oncology Gmbh, Germany) was purchased from a local pharmacy. A stock solution of 20 mg/ml was prepared by dissolving in 0.9% NaCl, aliquoted and stored at −20° C. Aliquots were thawed, diluted with saline if needed to a desired concentration and used on the same day prepared at indicated doses. • (iii) Murine cell lines—Mammary luciferase (luc)-labeled 4T1 cell line (4T1-Luc) was a kind gift from Dr. Zvi Granot (Faculty of Medicine, The Hebrew University of Jerusalem, Israel); melanoma B16-F10 cell line was obtained from the American Type Culture Collection (ATCC, Manassas, Va.); bladder MB49 cell line was a kind gift from James Allison (MSKCC, New York, USA), and luc-labeled MB49-cell line was established using the murine stem cell virus (MSCV)-puromycin-luc-GFP construct (kindly provided by Dr. Emily Cheng, Human Oncology and Pathogenesis Program, MSKCC). 4T1 and MB49 cells were maintained in DMEM medium and B16-F10 cells in RPMI medium supplemented with 1 mmol/L sodium pyruvate, 10% fetal calf serum (FCS), 250 μg/ml hygromycin, 0.06 mg/ml penicillin and 0.1 mg/ml streptomycin. The cells were grown as monolayer at 37° C. in a humidified atmosphere (5% CO2, 95% air). • (iv) Murine tumor models—Female, Balb/c mice (6-8 week old) were grafted either subcutaneously (s.c.) into the right hind leg or orthotopically with 1×10^6 4T1 cells suspended in 50 or 1000 PBS. […] Whole body imaging of luciferase-transfected tumors and metastases were recorded five minutes following 75 mg Kg^−1 intraperitoneal (i.p.) injection of D-luciferin with respective filter sets. • (vi) PDT treatment protocol: 4T1-Luc cells were grafted in the mammary pad of Balb/c mice. […] Ablation of primary tumors was assessed every 7 days by imaging the tumor's luciferase-mediated bioluminescence signal, using IVIS.

For test [2], the system named is s.c. 4T1-luc breast tumors. As to the kind of experiment: WST11 VTP with or without single dose CTX in mice bearing s.c. 4T1-luc tumors in the hind leg (Scheme 4). Format: in vivo, Balb/c mice. On the procedure: as §1

For the compound `CCC1c2cc3[n-]c(c(CC(=O)OC)c4nc(cc5[n-]c(cc(n2)C1C)c(C(C)=O)c5C)C(C)C4CCC(=O)[O-])c(C(=O)NCCS(=O)(=O)[O-])c3C.[K+].[K+].[Pd+2]` (stereo not shown) [WST11, Palladium 3^1-oxo-15-methoxycarbonylmethyl-rhodobacteriochlorin 13^1-(2-sulfoethyl) amide dipotassium salt], the “total cell numbers in draining lymph nodes and spleens after VTP” value in test [1] is listed as “decrease in cell counts”. Besides, the primary tumor growth result in test [2] (CTX 50 or 150 mg/kg alone, WST11 VTP at low light intensity (100 mW/cm^2) alone, or combination) is given as “unable to suppress primary tumor growth”. The lung metastases result in test [2] (VTP alone, even when primary tumor completely ablated) is “most of the mice subjected to VTP alone developed lung metastases”. For the same compound, the “time to tumor regrowth” value in test [2] (WST11 VTP at high light dose (150 mW/cm^2)) is “doubled”.

The values above are taken from patent US11278555B2, “Combinational therapies for treatment of cancer comprising a bacteriochlorophyll derivative” (Yeda Research and Development Co. Ltd., priority 2016, dated 2022).
